Laboratory results: paper PMC6826694, “Validation of Hepatocellular Carcinoma Experimental Models for TGF-β Promoting Tumor Progression” (Cancers, 2019)

What was measured:
[1] = tested on: CD133 and Vimentin; parameters: method as in PMID 29805610; conditions: ref [23]; cited from earlier work
[2] = tested on: TGF-β1 SMAD2/3 pathway; parameters: method as in PMID 29957876; conditions: CC14-induced mice; ref [20]; cited from earlier work
[3] = tested on: TGF-β linked EMT transition; conditions: female BALB/C nude mice, subcutaneous Hg2 cells; ref [44]; cited from earlier work
[4] = tested on: CD44 and THY1; parameters: method as in PMID 29515105, PMID 26057634; conditions: HLE and HLF cells in vitro; ref [24, 25]; cited from earlier work
[5] = tested on: invasive HCC cells (HLE and HLF); parameters: method as in PMID 29515105, PMID 26057634; conditions: in vitro and in ex vivo human HCC samples; ref [24, 25]; cited from earlier work
[6] = tested on: TGF-β1, TGF-β RI and TGF-β RII mRNA; assay: qRT-PCR mRNA expression in tumor tissues of the orthotopic model; format: in vivo, mouse; conditions: for mRNA expression of TGF-βI, TGF-β RI and TGF-β RII levels vs controls: tumor tissues, qRT-PCR
From the text: No difference was found comparing the two Galunisertib formulations.

[7] = Appearance / solubility of Galunisertib in the dosing formulations; format: physicochemical
Protocol: (§1) Firstly, we quantified the concentration of LY2157299 in plasma of female CD-1 mice by a liquid chromatographic method, in order to define the concentration for the therapeutic window. Therefore, the drug was administered orally and given in two formulations. Group 1 (15 mice) received Galunisertib as suspension (75 mg/kg) prepared by mixing Galunisertib with 1% Carboxymethylcellulose, 0.5% Sodium Lauryl Sulfate, 0.085% Povidone, followed by sonication in a water bath sonicator or with a probe sonicator until a fine suspension with a final concentration of 7.5 mg/mL was achieved. Group 2 (15 mice) received Galunisertib as solution (150 mg/kg solution) prepared by dissolving the drug in 10% of dimethylsulfoxide (DMSO), and then adding sequentially polyethylene glycol (PEG)400 (30%), ethanol (EtOH) (10%), saline (30%) and HCl 0.01 M (20%) at a final pH of ~6 under mixing to a final concentration of 15 mg/mL.

[8] = tested on: SKIL and PMEPA1 mRNA; conditions: HCC tumor tissues; ref [26]; cited from earlier work
[9] = Plasma pharmacokinetics of Galunisertib after single oral dose (HPLC-FL); format: in vivo, mouse; conditions: for AUC(0-t) / Cmax / Tmax / half-life / k el: mouse, single oral dose, female CD-1 mice, plasma
Protocol: as §1
The volume of administration was 10mL/kg for single treatment. Physical appearance, behavior as well as general and local clinical signs of the mice were monitored throughout the experiment. […] At predefined time points (0.5, 1, 2, 4, 8 h after administration), the animals were deeply anesthetized by isoflurane followed by a complete retro-orbital bleeding. The blood was collected in heparinized tubes and centrifuged at 6000× g for 5–10 minutes within 15 minutes after collection. The plasma was transferred to tubes and stored at −20 °C until analysis.
To quantify the concentration of Galunisertib, plasma was measured by a HPLC/Fluorimetric (HPLC-FL) method.
The pharmacokinetic parameters (Kelim, T1/2, and Tmax.) represented as mean ± SD of three animals/time for both Galunisertib formulations were determined using the MKModel by Nick Holford software Version 4, (Biosoft, Ferguson, MO, USA) or equivalent pharmacokinetic programs (Table 4).

[10] = tested on: HepG2 cells; parameters: method as in PMID 23826206; conditions: exogenous TGF-β1 in vitro, ref [22]; cited from earlier work
[11] = tested on: pancreatic ductal adenocarcinoma; parameters: method as in PMID 30866547; conditions: ref [17]; cited from earlier work
[12] = tested on: HepG2-Luc cells; assay: Orthotopic HCC model, intrahepatic HepG2-Luc cells in NOG mice, tumor growth by IVIS bioluminescence; format: in vivo, mouse; conditions: for Bioluminescence (average radiance, IVIS) vs vehicle (GP1): NOG mice, HepG2-Luc
Protocol: To evaluate in vivo the effect of Galunisertib (LY2157299) on tumor growth rate we used an orthotopic model: HCC was induced by intrahepatic injections of 1 × 10^6 HepG2-Luc cells in 7–8 weeks old, female NOG mice. The inoculated animals presented a clear engraftment of the liver cancer. The tumor growth was monitored weekly with IVIS Spectrum (PerkinElmer) through intraperitoneal administration of D-Luciferin (Sigma, 150 mg/10 mL/kg) until the end of the experiment.
Two weeks after the injection of HepG2-Luc cells, 45 mice were selected based on the bioluminescence signal and randomized into three groups of 15 animals. The first group (control group) was treated with 10 mL/kg of a […] vehicle solution (10% DMSO, 30% PEG400, 10% EtOH, 30% saline solution, 20% HCl 0.01 M, final pH 6.0). The second group (GP2) received 10 mL/kg Galunisertib solution via gastric probe (OS) and in the third group of mice (GP3) the drug was administered intravenously (IV) with 5 mL/kg Galunisertib encapsulated in polymeric nanocapsules. This nanoencapsulation was used to optimize the formulation in order to maximize therapeutic efficiency and minimize systemic toxicity. The nanocapsules were prepared from biocompatible and biodegradable polymers as described previously.
After sacrificing the animals, a complete necropsy was performed and documented by photos. Before sacrificing the animals, they were imaged by IVIS Spectrum to identify bioluminescent tissues for explantation.
Figure 4 Treatment of NOD/Shi-Scid/IL-2Rγ^null […] (NOG) mice with luciferin-labeled hepatocellular carcinoma (HCC) with vehicle or two Galunisertib preparations. (A). Bioluminescence images of NOG mice prior injected intrahepatically with HepG2-Luc cells at Day 23 and 44 after vehicle injection (GP1), or Galunisertib administration via gavage (GP2) or intravenous route (GP3). (B) Average Radiance (IVIS) versus time after tumor inoculation. Data were averaged over the animals which reached the end of experiment (GP1: n = 15; GP2: n = 14; GP3: n = 10).

[13] = tested on: SK-HEP1-Luc cells; parameters: method as in PMID 26549110; conditions: oral administration, female BALB/C nu/nu, orthotopic SK-HEP1-Luc; ref [45]; cited from earlier work

**Q.** For `NC(=O)c1ccc(-c2nc(-c3ccc4c(c3)OCO4)c(-c3ccccn3)[nH]2)cc1` [SB431542], which “Expression of CD133 and Vimentin” value [1] is on record?
**A.** Its value is “upregulated”.

**Q.** And the “Effect on liver fibrosis and TGF-β1 SMAD2/3” value [2]?
**A.** Its value is “significantly attenuated”.

**Q.** Which “Effect on TGF-β linked EMT transition” value [3] does the source give for `C[S+]([O-])CCCCN=C=S` (stereo not shown) [Sulforaphane] here?
**A.** The value was “Sulforaphane inhibits TGF-β linked EMT transition”.

**Q.** Which results are given for `Cc1cccc(-c2nn3c(c2-c2ccnc4ccc(C(N)=O)cc24)CCC3)n1` [Galunisertib]?
**A.** Expression of CD44 and THY1 [4]: reducing the expression; Colony formation, liver spheroids and invasive growth capacity [5]: decrease; mRNA level of the drug target compared to controls treated with vehicle ([6]; orthotopic HepG2-Luc model, NOG mice): statistically significant reduction (p = 0.03); mRNA expression of TGF-βI, TGF-β RI and TGF-β RII levels vs controls ([6]; mice treated with Galunisertib solution): significant (p < 0.05) down-regulation; mRNA expression of TGF-βI, TGF-β RI and TGF-β RII levels vs controls ([6]; mice treated with encapsulated Galunisertib): significant (p < 0.05) down-regulation; Appearance / solubility in formulation ([7]; new formulation, 150 mg/kg solution: 10% DMSO, 30% PEG400, 10% EtOH, 30% saline, 20% HCl 0.01 M, pH ~6, 15 mg/mL): completely clear solution; Appearance / solubility in formulation ([7]; old formulation (75 mg/kg): 1% Carboxymethylcellulose, 0.5% Sodium Lauryl Sulfate, 0.085% Povidone, 7.5 mg/mL): only moderately soluble; SKIL and PMEPA1 mRNA expression [8]: strongly down-regulated; Cmax and AUClast higher than the 75 mg/kg suspension ([9]; 150 mg/kg solution vs 75 mg/kg suspension, considering the dose correcting factor): 2.5 fold; AUC(0-t) ([9]; Solution (150 mg/kg)): 15500 ng·h/mL; Cmax ([9]; Solution (150 mg/kg)): 19000 ng/mL; Tmax ([9]; Solution (150 mg/kg)): 30 min; half-life ([9]; Solution (150 mg/kg)): 103 min; k el ([9]; Solution (150 mg/kg)): 0.000164 s⁻¹; AUC(0-t) ([9]; Suspension (75mg/kg)): 3110 ng·h/mL; Cmax ([9]; Suspension (75mg/kg)): 3330 ng/mL; Tmax ([9]; Suspension (75mg/kg)): 30 min; half-life ([9]; Suspension (75mg/kg)): 84 min; k el ([9]; Suspension (75mg/kg)): 0.000136 s⁻¹; Effect on TGF-β1-induced changes (flat, larger cells; reduced E-cadherin in cell–cell contact) [10]: reversed; Effect on mast cell-mediated resistance to GEM/NAB (reduced apoptosis, TGF-β signaling, invasion) [11]: restored; Bioluminescence (average radiance, IVIS) vs vehicle (GP1) ([12]; GP2 (LY × OS): 10 mL/kg Galunisertib solution via gastric probe): no significant difference in bioluminescence; Bioluminescence (average radiance, IVIS) vs vehicle (GP1) ([12]; GP3 (LY × IV): 5 mL/kg Galunisertib encapsulated in polymeric nanocapsules, intravenous): no significant difference in bioluminescence; Effect on tumor regression or prevention of metastasis ([12]; treated groups (GP2 gavage, GP3 intravenous) vs control, treatment period Day 16–Day 44): no effect on tumor regression or prevention of metastasis

**Q.** For `Cc1cccc(-c2[nH]c(CNc3ccccc3F)nc2-c2ccc3ncnn3c2)n1` [EW-7197], which “Effect on tumor growth” value [13] is on record?
**A.** Its value is “ALK 5 inhibitor interferes with tumor growth”.
